Data taken from ChEMBL document CHEMBL4334438, “Discovery of novel glycogen synthase kinase-3α inhibitors: Structure-based virtual screening, preliminary SAR and biological evaluation for treatment of acute myeloid leukemia” (Eur J Med Chem, 2019).

Legend:
[1] = biological target: Myosin light chain kinase, smooth muscle (Homo sapiens) (UniProt Q15746); experiment: Inhibition of recombinant human MLCK (1425 to 1771 residues) assessed as residual activity at 1 uM […] incubated for 40 mins in presence of [gamma-33ATP by scintillation counting based radiometry assay relative to control
[2] = biological target: Serine/threonine-protein kinase ICK (Homo sapiens) (UniProt Q9UPZ9); experiment: Inhibition of human ICK (1 to 312 residues) assessed as residual activity at 1 uM using RRRFRPASPLRGPPK as substrate after 40 mins by [gamma-33ATP] radiometric assay relative to control
[3] = biological target: Ribosomal protein S6 kinase alpha-1 (Homo sapiens) (UniProt Q15418); experiment: Inhibition of recombinant full length human Rsk1 assessed as residual activity at 1 uM using KKKNRTLSVA as substrate measured after 40 mins in presence of [gamma33P]ATP by scintillation counting method relative to control
[4] = test system: Protein kinase C eta type (Homo sapiens), P24723 [UNDEFINED MUTATION]; experiment: Inhibition of recombinant human PKCeta V108L/G109R/L392Q mutant (2 to end residues) assessed as residual activity at 1 uM using ERMRPRKRQGSVRRRV as substrate incubated for 40 mins in presence of [gamma33P]ATP by scintillation counting based radiometry assay relative to control
[5] = biological target: Mitogen-activated protein kinase kinase kinase kinase 2 (Homo sapiens) (UniProt Q12851); experiment: Inhibition of recombinant human GCK (1 to 473 residues) assessed as residual activity at 1 uM using myelin basic protein as substrate at 40 mins in presence of [gamma-33ATP] by scintillation counting based radiometry assay relative to control
[6] = biological target: Ephrin type-B receptor 1 (Homo sapiens) (UniProt P54762); experiment: Inhibition of recombinant human EphB1 (564 to end residues) assessed as residual activity at 1 uM using KVEKIGEGTYGVVYK as substrate at 40 mins in presence of [gamma-33ATP] by scintillation counting based radiometry assay relative to control
[7] = biological target: CDK12/Cyclin K (Homo sapiens) (UniProt O75909+Q9NYV4); experiment: Inhibition of recombinant full length human CDK12/cyclinK assessed as residual activity at 1 uM using RSRSRSRSRSRSRSR as substrate incubated for 120 mins in presence of [gamma-33ATP] by scintillation counting based radiometry assay relative to control; format: protein-complex assay
[8] = biological target: Protein kinase C theta type (Homo sapiens) (UniProt Q04759); experiment: Inhibition of recombinant full length human PKCtheta assessed as residual activity at 1 uM using histone H1 as substrate measured after 40 mins in presence of [gamma33P]ATP by scintillation counting method relative to control
[9] = biological target: Serine/threonine-protein kinase PLK1 (Homo sapiens) (UniProt P53350); experiment: Inhibition of recombinant full-length human Plk1 assessed as residual activity at 1 uM using casein as substrate measured after 40 mins in presence of [gamma33P]ATP by scintillation counting method relative to control
[10] = test system: Hepatocyte growth factor receptor (Homo sapiens), P08581 [D1228N]; experiment: Inhibition of recombinant human MET A1209G/V1290L/D1246N mutant (974 to end residues) assessed as residual activity at 1 uM using KKKGQEEEYVFIE as substrate incubated for 40 mins in presence of [gamma-33ATP by scintillation counting based radiometry assay relative to control
[11] = biological target: Bone morphogenetic protein receptor type-2 (Homo sapiens) (UniProt Q13873); experiment: Inhibition of recombinant human BMPR2 (172 to 734 residues) assessed as residual activity at 1 uM using myelin basic protein as substrate incubated for 120 mins in presence of [gamma-33ATP] by scintillation counting based radiometry assay relative to control
[12] = biological target: Mitogen-activated protein kinase 9 (Homo sapiens) (UniProt P45984); experiment: Inhibition of human JNK2alpha2 assessed as residual activity at 1 uM using ATF2 as substrate after 40 mins by [gamma-33ATP] radiometric assay relative to control
[13] = biological target: Dual specificity mitogen-activated protein kinase kinase 6 (Homo sapiens) (UniProt P52564); experiment: Inhibition of recombinant human MKK6 (4 to end residues) assessed as residual activity at 1 uM using unactive SAPK2a as substrate measured after 40 mins in presence of [gamma33P]ATP by scintillation counting method
[14] = biological target: Serine/threonine-protein kinase MRCK alpha (Homo sapiens) (UniProt Q5VT25); experiment: Inhibition of recombinant human MRCKalpha (1 to 473 residues) assessed as residual activity at 1 uM using KKRNRTLTV as substrate measured after 40 mins in presence of [gamma33P]ATP by scintillation counting method relative to control
[15] = biological target: Serine/threonine-protein kinase 10 (Homo sapiens) (UniProt O94804); experiment: Inhibition of recombinant human LOK (1 to 348 residues) assessed as residual activity at 1 uM using RLGRDKYKTLRQIRQ as substrate after 40 mins in presence of [gamma-33ATP] by scintillation counting based radiometry assay relative to control
[16] = biological target: SRSF protein kinase 2 (Homo sapiens) (UniProt P78362); experiment: Inhibition of human SRPK2 (46 to end residues) assessed as residual activity at 1 uM using RSRSRSRSRSRSRSR as substrate measured after 40 mins in presence of [gamma33P]ATP by scintillation counting method relative to control
[17] = biological target: Serine-protein kinase ATM (Homo sapiens) (UniProt Q13315); experiment: Inhibition of recombinant full-length human ATM at 1 uM assessed as residual activity at 1 uM using GST-cMyc-p53 as substrate measured after 40 mins by ELISA
[18] = biological target: Serine/threonine-protein kinase 17A (Homo sapiens) (UniProt Q9UEE5); experiment: Inhibition of recombinant human DRAK1 assessed as residual activity at 1 uM using KKLNRTLSFAEPG as substrate at 40 mins in presence of [gamma-33ATP] by scintillation counting based radiometry assay relative to control
[19] = biological target: Serine/threonine-protein kinase Nek6 (Homo sapiens) (UniProt Q9HC98); experiment: Inhibition of recombinant human NEK6 (2 to end residues) assessed as residual activity at 1 uM using FLAKSFGSPNRAYKK as substrate measured after 40 mins in presence of [gamma33P]ATP by scintillation counting method relative to control
[20] = biological target: Insulin receptor-related protein (Homo sapiens) (UniProt P14616); experiment: Inhibition of human IRR (943 to 1266 residues) assessed as residual activity at 1 uM using myelin basic protein as substrate after 40 mins by [gamma-33ATP] radiometric assay relative to control
[21] = biological target: Serine/threonine-protein kinase Chk2 (Homo sapiens) (UniProt O96017); experiment: Inhibition of recombinant human CHK2 (5 to end residues) assessed as residual activity at 1 uM using KKKVSRSGLYRSPSMPENLNRPR as substrate incubated for 40 mins in presence of [gamma-33ATP] by scintillation counting based radiometry assay relative to control

Chain of Serine/threonine-protein kinase 10 (Homo sapiens) (O94804 whole entry, looked up, the tested form may be a part): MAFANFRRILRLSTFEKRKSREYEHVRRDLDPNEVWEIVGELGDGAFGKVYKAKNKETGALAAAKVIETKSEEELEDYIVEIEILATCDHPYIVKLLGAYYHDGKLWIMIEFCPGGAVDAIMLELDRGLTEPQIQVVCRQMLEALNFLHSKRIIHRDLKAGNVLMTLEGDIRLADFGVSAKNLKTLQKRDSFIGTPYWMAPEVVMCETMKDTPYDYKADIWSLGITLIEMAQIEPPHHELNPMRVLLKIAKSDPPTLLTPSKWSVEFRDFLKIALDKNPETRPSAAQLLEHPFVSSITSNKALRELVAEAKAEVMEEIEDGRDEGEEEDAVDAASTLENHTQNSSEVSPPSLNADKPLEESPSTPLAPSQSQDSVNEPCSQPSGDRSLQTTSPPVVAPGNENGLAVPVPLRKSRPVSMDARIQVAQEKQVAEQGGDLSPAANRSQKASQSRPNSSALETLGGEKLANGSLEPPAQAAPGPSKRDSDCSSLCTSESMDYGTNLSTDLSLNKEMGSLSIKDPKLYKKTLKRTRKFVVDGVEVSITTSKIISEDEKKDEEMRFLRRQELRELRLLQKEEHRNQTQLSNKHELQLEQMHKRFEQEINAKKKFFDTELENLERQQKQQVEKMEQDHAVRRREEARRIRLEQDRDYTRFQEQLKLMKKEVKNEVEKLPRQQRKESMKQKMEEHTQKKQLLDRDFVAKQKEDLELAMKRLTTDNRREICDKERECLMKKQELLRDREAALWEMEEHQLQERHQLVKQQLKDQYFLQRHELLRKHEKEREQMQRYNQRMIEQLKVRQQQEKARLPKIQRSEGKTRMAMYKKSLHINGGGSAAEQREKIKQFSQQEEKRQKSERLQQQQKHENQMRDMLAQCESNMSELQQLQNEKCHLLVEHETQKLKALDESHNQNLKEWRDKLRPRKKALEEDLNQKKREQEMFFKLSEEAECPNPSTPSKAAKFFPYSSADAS
Chain of Ephrin type-B receptor 1 (Homo sapiens) (P54762 whole entry): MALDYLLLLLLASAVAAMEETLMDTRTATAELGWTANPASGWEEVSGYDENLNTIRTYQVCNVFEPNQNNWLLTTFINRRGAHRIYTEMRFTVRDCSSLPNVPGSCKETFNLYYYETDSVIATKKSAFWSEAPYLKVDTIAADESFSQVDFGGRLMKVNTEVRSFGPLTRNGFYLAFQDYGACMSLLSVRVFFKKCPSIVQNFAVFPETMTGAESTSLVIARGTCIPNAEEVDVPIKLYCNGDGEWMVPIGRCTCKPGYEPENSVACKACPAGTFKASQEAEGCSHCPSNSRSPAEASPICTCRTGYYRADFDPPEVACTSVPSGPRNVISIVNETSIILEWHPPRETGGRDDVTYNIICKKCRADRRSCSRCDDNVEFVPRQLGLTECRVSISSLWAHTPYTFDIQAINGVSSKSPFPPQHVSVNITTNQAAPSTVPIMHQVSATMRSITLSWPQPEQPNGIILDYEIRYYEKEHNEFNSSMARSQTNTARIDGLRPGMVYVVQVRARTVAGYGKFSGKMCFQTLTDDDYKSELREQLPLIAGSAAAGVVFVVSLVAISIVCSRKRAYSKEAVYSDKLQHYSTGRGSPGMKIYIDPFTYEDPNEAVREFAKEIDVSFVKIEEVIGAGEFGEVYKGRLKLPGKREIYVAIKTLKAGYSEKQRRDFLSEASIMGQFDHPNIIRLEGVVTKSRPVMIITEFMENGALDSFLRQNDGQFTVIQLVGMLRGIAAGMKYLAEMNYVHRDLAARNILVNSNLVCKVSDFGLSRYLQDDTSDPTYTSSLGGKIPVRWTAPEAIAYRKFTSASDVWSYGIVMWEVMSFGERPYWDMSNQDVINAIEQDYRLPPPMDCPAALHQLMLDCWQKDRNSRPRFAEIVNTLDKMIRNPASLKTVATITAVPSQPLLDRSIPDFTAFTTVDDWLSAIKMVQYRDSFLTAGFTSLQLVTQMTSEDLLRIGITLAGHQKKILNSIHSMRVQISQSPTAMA
Chain of Serine/threonine-protein kinase Nek6 (Homo sapiens) (Q9HC98 whole entry, the tested form may be a part): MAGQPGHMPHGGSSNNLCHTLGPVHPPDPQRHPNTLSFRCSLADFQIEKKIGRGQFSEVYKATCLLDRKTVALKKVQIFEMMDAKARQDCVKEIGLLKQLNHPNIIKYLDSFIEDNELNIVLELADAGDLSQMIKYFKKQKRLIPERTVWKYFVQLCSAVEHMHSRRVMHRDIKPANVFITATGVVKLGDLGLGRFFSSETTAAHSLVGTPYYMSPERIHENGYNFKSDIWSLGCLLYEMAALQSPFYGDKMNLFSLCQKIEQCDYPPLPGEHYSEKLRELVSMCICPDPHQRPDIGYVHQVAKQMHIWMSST
Chain of Ribosomal protein S6 kinase alpha-1 (Homo sapiens) (Q15418 whole entry): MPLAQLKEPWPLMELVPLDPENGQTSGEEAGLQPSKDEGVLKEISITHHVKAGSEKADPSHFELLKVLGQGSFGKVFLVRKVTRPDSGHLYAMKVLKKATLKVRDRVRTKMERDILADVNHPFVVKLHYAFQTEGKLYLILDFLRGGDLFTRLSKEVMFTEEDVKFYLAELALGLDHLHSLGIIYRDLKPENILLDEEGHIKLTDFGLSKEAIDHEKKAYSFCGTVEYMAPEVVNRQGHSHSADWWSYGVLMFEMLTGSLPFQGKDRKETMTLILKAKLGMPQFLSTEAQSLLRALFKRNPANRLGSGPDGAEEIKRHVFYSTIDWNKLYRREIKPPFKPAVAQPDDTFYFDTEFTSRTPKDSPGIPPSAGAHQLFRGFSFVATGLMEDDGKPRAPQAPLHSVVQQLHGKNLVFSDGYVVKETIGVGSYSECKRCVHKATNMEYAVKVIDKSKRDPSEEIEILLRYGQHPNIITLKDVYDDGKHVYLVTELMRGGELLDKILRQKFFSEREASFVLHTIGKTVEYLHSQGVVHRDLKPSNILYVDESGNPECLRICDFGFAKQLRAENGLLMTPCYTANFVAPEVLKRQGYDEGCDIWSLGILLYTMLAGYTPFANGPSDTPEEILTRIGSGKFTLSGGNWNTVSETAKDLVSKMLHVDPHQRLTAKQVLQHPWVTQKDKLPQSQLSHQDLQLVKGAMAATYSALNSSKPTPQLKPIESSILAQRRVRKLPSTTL
Chain of Bone morphogenetic protein receptor type-2 (Homo sapiens) (Q13873 whole entry, the tested form may be a part): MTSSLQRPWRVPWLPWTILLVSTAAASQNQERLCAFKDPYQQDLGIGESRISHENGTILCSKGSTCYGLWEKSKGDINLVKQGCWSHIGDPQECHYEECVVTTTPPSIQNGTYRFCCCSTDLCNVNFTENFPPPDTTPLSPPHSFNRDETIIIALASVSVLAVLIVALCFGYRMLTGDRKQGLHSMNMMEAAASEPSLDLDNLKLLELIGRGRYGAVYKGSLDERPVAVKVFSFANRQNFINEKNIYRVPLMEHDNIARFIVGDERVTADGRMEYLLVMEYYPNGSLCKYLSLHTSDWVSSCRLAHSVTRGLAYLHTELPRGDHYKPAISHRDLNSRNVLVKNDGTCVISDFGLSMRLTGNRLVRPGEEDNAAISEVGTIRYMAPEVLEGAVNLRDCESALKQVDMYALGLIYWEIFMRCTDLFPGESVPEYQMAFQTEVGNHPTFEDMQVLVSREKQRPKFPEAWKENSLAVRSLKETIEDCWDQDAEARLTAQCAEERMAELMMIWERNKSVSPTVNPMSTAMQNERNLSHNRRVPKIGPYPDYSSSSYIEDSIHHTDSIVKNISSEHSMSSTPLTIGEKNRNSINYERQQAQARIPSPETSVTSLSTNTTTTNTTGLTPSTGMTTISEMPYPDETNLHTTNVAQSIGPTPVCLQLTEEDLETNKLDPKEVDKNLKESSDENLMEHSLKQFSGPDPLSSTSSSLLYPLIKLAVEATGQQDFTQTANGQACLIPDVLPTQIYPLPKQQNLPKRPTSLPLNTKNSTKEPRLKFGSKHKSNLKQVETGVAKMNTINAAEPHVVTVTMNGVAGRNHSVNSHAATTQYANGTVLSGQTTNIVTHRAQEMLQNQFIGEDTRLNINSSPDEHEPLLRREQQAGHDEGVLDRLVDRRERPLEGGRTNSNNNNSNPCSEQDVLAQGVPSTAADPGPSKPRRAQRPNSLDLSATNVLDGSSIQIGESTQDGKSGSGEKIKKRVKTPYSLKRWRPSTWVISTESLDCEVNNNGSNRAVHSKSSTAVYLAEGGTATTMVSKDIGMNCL
Chain of Protein kinase C theta type (Homo sapiens) (Q04759 whole entry, looked up): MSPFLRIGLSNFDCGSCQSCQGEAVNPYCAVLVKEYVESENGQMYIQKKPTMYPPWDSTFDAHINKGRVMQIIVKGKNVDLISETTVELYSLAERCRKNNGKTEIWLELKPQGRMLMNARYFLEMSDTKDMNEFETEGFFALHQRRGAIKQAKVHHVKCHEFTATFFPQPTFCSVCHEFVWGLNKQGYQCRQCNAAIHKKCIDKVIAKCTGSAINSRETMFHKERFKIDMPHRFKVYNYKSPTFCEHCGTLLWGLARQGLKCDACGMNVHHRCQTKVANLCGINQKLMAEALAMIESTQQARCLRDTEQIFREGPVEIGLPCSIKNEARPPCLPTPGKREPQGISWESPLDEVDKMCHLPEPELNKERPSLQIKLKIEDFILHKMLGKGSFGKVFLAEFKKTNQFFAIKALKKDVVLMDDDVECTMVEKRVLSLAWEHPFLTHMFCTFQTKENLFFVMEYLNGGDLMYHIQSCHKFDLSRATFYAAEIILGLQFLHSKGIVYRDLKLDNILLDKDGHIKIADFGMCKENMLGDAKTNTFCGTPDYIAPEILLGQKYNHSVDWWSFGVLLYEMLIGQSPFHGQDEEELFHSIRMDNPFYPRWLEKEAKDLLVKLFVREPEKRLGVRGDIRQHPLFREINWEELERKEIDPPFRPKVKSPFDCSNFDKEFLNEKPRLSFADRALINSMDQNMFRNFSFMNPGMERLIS
Chain of Dual specificity mitogen-activated protein kinase kinase 6 (Homo sapiens) (P52564 whole entry, the tested form may be a part): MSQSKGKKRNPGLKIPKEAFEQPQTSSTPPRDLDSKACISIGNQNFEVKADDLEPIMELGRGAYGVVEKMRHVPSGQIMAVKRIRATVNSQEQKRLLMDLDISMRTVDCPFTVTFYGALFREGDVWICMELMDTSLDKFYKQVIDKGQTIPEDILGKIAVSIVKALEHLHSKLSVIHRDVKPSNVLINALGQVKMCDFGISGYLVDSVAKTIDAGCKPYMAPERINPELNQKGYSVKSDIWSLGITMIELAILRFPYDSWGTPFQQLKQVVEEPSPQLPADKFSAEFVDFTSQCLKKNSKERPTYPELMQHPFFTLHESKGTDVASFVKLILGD

SMILES	Activity [1]	Activity [2]	Activity [3]	Activity [4]	Activity [5]	Activity [6]	Activity [7]	Activity [8]	Activity [9]	Activity [10]	Activity [11]	Activity [12]	Activity [13]	Activity [14]	Activity [15]	Activity [16]	Activity [17]	Activity [18]	Activity [19]	Activity [20]	also measured
N=C1NC(=O)/C(=C\c2ccc(-c3cccc([N+](=O)[O-])c3)o2)S1	37%	18%	105%	101%	81%	115%	98%	101%	99%	105%	91%	103%	78%	103%	95%	82%	102%	80%	102%	55%	Activity [21]: 94%
C=CCOC(=O)c1cc(-c2ccc(/C=C3/NC(=S)NC3=O)o2)ccc1Cl	89%	28%	90%	99%	89%	102%	96%	96%	103%	114%	99%	109%	121%	98%	95%	99%	100%	83%	98%	45%	Activity [21]: 92%
